Results reported in patent US7947827B2 (priority 2006, dated 2011).
Like-named read-outs stand apart in the source and are kept apart here.

Experiments:
[1] = rhesus monkey, in vivo, iv; cited from earlier work
[2] = rhesus monkey, in vivo, iv
[3] = rat, in vivo; cited from earlier work
[4] = in vivo, po; cited from earlier work
[5] = parameters: species or system sheep; conditions: in vivo
[6] = parameters: species or system humans; conditions: in vivo
[7] = rabbit, in vivo, cited from earlier work
[8] = rat, in vivo, cited from earlier work
[9] = in vivo, ip; cited from earlier work
[10] = pig, in vivo, cited from earlier work
[11] = mouse, in vivo, cited from earlier work
[12] = dog, in vivo, cited from earlier work
[13] = test system: NQO activity in cultured murine hepatoma cells; conditions: cited from earlier work
[14] = test system: azoxymethane- and IQ-induced aberrant crypt foci; conditions: in vivo; cited from earlier work
[15] = rat, in vivo; cited from earlier work; remark: listed apart in the source
[16] = rat, in vivo; cited from earlier work; remark: listed apart in the source
[17] = in vivo; cited from earlier work
[18] = guinea pig, in vivo; cited from earlier work
[19] = rat, in vivo; cited from earlier work; remark: listed apart in the source
[20] = rat, in vivo; cited from earlier work; remark: listed apart in the source
[21] = mouse, in vivo, po, 2500 mg/kg; cited from earlier work
[22] = test system: bone marrow cells of mice; conditions: mouse, in vivo; cited from earlier work

What does the source list for `COc1cc2c(c3oc(=O)c4c(c13)CCC4=O)[C@@H]1C=CO[C@@H]1O2` [AFB1, aflatoxin B1]?
dose eliminated in urine as chloroform extractable, first 24 hours [1]: ~10%; dose eliminated in urine as unbound, first 24 hours [1]: ~30%; dose eliminated in urine within first 24 hours [1]: 40%; dose remaining in the liver at 100 hours [1]: 13.6%; dose remaining in the plasma at 100 hours [1]: 5.8%; fecal excretion of dose, 24 to 48 hours [1]: 20%; fecal excretion of dose, 48 to 72 hours [1]: ~6%; fecal excretion of dose, 72 to 100 hours [1]: ~3%; fecal excretion of dose, first 24 hours [1]: ~4%; total excreta after 100 hours, of administered dose [1]: 73.1%; terminal half-life (t1/2β) from all routes of excretion [2]: approximately 24 hours; absorption rate constant (ka) [3]: 5.84 ± 0.05 h⁻¹; total dose excreted in first 48 hours [4]: approximately 90%; t1/2 [5]: approximately 24 hours; terminal half-life, conservative estimate [6]: less than 24 hours; time to complete absorption [6]: 0.5 to 1.0 h

Which LD50 ([7]; im) does the source give for Sodium chlorophyllin copper complex here?
Its LD50 is > 60 mg/kg.

What about the LD50 ([7]; ip) of the same compound?
Its LD50 is > 500 mg/kg.

And the LD50 ([7]; iv)?
The LD50 was > 200 mg/kg.

And the LD50 ([8]; im)?
The LD50 was > 250 mg/kg.

What about the LD50 ([8]; ip) of the same compound?
The LD50 was > 1000 mg/kg.

And the LD50 ([8]; iv)?
The LD50 was > 250 mg/kg.

What about the LD50 [9] of the same compound?
Its LD50 is > 60 mg/kg.

And the LD50 ([10]; im)?
The LD50 was > 20 mg/kg.

What about the LD50 ([10]; iv) of the same compound?
The LD50 was > 10 mg/kg.

And the LD50 ([11]; im)?
The LD50 was > 500 mg/kg.

What about the LD50 ([11]; ip) of the same compound?
Its LD50 is > 1000 mg/kg.

And the LD50 ([11]; iv)?
Its LD50 is > 400 mg/kg.

And the LD50 ([12]; im)?
The LD50 was > 50 mg/kg.

And the LD50 ([12]; ip)?
The LD50 was > 200 mg/kg.

What about the LD50 ([12]; iv) of the same compound?
Its LD50 is > 200 mg/kg.

For chlorin e4 ethyl ester, which “concentration required to double NQO activity (CD)” value [13] is on record?
The value was 20 µM.

What about the “potency as NQO inducer relative to Chl” value [13] of the same compound?
The value was 50 times.

For chlorophyll, which “azoxymethane- and IQ-induced aberrant crypt foci” value [14] is on record?
The value was “inhibited”.

With “potassium sodium chlorophyllin copper complex [sodium potassium chlorophyllin]” as the compound, how does the adverse effects [15] read?
Its adverse effects is “without any adverse effects except weight loss related to food refusal”.

And the “copper storage in liver, kidney or spleen” value [16]?
Its value is “No copper storage occurred”.

And the scurvy [17]?
Its scurvy is “no evidence of scurvy”.

And the “ill effects or pathological change” value [18]?
The value was “without ill effects or pathological change”.

And the effects in offspring [19]?
The effects in offspring was “locomotory difficulties and skeletal muscle defects”.

What about the LD50 ([11]; po) of the same compound?
The LD50 was 7000 mg/kg.

What about the “Cu toxicity or deposition in liver, kidney or spleen” value [20] of the same compound?
Its value is “no evidence of Cu toxicity or deposition”.

And the “gross or histopathological changes” value [20]?
Its value is “No gross or histopathological changes”.

For sodium copper chlorophyllin, which “concentration required to double NQO activity (CD)” value [13] is on record?
The value was 30 µM.

And the “potency as NQO inducer relative to Chl” value [13]?
The value was ~10 times.

What about the ill effects [21] of the same compound?
The ill effects was “without any ill effects”.

What about the “reducing clastogenicity from cesium chloride, mercuric chloride and cobalt chloride” value [22] of the same compound?
The value was “demonstrated efficacy”.
